Measurements published in patent publication US11236047B2 (ASTEX THERAPEUTICS LIMITED, priority 2017, dated 2022).
Where two headings read alike, the source gives them in different places.

Legend:
SN40R2 cells = test: Protocol B: SN40R2 CellTiter-Glo luminescent cell viability assay; settings: for IC50: read-out: SN40R2 IC50 (μM) (Protocol B)
Experimental: Protocol B: SJSA-1 and SN40R2 Assays
The CellTiter-Glo® Luminescent Cell Viability Assay is a homogeneous method to determine the number of viable cells in culture based on quantitation of the ATP present, which signals the presence of metabolically active cells. […] 100 μl of CTG reagent (Promega #G7573) was added to all wells and luminescence was measured on the topcount. The EC50 values were determined from a sigmoidal 4 parameter curve fit using XLfit in conjunction with Activity Base (IDBS; Guildford, Surrey, UK).

SJSA-1 cells = test: Protocol B: SJSA-1 CellTiter-Glo luminescent cell viability assay
[1] = Homo sapiens, SJSA-1, read-out: SJSA1 IC50 (μM) (Protocol B), SJSA-1, Protocol B
[2] = read-out: SJSA1 IC50 (μM) (Protocol B), SJSA-1, Protocol B
[3] = read-out: SN40R2 % inhibition at 10
[4] = Homo sapiens, SJSA-1, read-out: SJSA1 IC50 (μM), Protocol B, SJSA-1
[5] = read-out: SJSA1 IC50, Protocol B, SJSA-1

**Q.** What does the source list for `CO[C@]1(c2ccc(Cl)cc2)c2c(F)cc(C(C)(O)c3ncc[nH]3)cc2C(=O)N1Cc1ccc(Cl)cn1` (single isomer, unassigned) [Example 163]?
**A.** IC50 (SN40R2 cells): 13 µM; IC50 (SJSA-1 cells; [1]): 3.1 µM

**Q.** How did the IC50 (SN40R2 cells) turn out when `CO[C@]1(c2ccc(Cl)cc2)c2c(F)cc(C(C)(O)c3nccs3)cc2C(=O)N1Cc1ccc(Cl)cn1` (single isomer, unassigned) [Example 165] was run?
**A.** 13 µM

**Q.** And the IC50 (SJSA-1 cells; [2])?
**A.** 1.4 µM

**Q.** What does the source list for `CCC(O)(c1cc(F)c2c(c1)C(=O)N(Cc1ccc(C#N)cn1)[C@@]2(OCCO)c1ccc(Cl)cc1)c1cscn1` (single isomer, unassigned) [Example 333]?
**A.** inhibition at 10 µM (SN40R2 cells; [3]): 5%; IC50 (SJSA-1 cells; [4]): 0.22 µM

**Q.** Which inhibition at 10 µM (SN40R2 cells; [3]) does the source give for `CCC(O)(c1cc(F)c2c(c1)C(=O)N(Cc1ccc(C#N)cn1)[C@@]2(OCC1(CO)CC1)c1ccc(Cl)cc1)c1cn(C)cn1` (single isomer, unassigned) [Example 338] here?
**A.** 6%

**Q.** What about the IC50 (SJSA-1 cells; [5]) of the same compound?
**A.** 1.5 µM

**Q.** Which inhibition at 10 µM (SN40R2 cells; [3]) does the source give for `CCC(O)(CN1CCN(C)CC1)c1cc(F)c2c(c1)C(=O)N(Cc1ncc(Cl)cn1)[C@@]2(O[C@H]1CCOC1)c1ccc(Cl)cc1` (single isomer, unassigned) [Example 522] here?
**A.** 24%

**Q.** And the IC50 (SJSA-1 cells; [5])?
**A.** 0.048 µM

**Q.** `CCC(O)(CN1CCN(C)CC1)c1cc(F)c2c(c1)C(=O)N(Cc1ncc(Cl)cn1)[C@@]2(OCC1(C#N)CC1)c1ccc(Cl)cc1` (single isomer, unassigned) [Example 534] was tested. Which inhibition at 10 µM (SN40R2 cells; [3]) did it give?
**A.** 44%

**Q.** What about the IC50 (SJSA-1 cells; [5]) of the same compound?
**A.** 0.7 µM

**Q.** What does the source list for `[2H]C([2H])(O)C1(C([2H])([2H])O[C@]2(c3ccc(Cl)cc3)c3c(F)cc(C(C)(O)CC)cc3C(=O)N2Cc2ncc(C#N)cn2)CC1` (single isomer, unassigned) [Example 576]?
**A.** inhibition at 10 µM (SN40R2 cells; [3]): 5%; IC50 (SJSA-1 cells; [4]): 0.14 µM

**Q.** Which results are given for `CO[C@]1(c2ccc(Cl)cc2)c2c(F)cc(C(C)(O)c3cn(C)c(C)n3)cc2C(=O)N1Cc1ccc(Cl)cn1` (stereo partly drawn) [Example 162, (3R)-3-(4-Chlorophenyl)-2-[(5-chloropyridin-2-yl)methyl]-6-[1-(1,2-dimethyl-1H-imidazol-4-yl)-1-hydroxyethyl]-4-fluoro-3-methoxy-2,3-dihydro-1H-isoindol-1-one]?
**A.** IC50 (SN40R2 cells): 13 µM; IC50 (SJSA-1 cells; [2]): 0.22 µM

**Q.** `CO[C@]1(c2ccc(Cl)cc2)c2c(F)cc(C(C)(O)C3CN(C)C3)cc2C(=O)N1Cc1ccc(Cl)cn1` (stereo partly drawn) [Example 307, (3R)-3-(4-chlorophenyl)-2-[(5-chloropyridin-2-yl)methyl]-4-fluoro-6-[1-hydroxy-1-(1-methylazetidin-3-yl)ethyl]-3-methoxy-2,3-dihydro-1H-isoindol-1-one] was tested. Which IC50 (SN40R2 cells) did it give?
**A.** 11 µM

**Q.** And the IC50 (SJSA-1 cells; [1])?
**A.** 1.9 µM

**Q.** What does the source list for `Cn1cc(C(C)(O)c2cc(F)c3c(c2)C(=O)N(Cc2ccc(Cl)cn2)[C@@]3(OCC2(CO)CC2)c2ccc(Cl)cc2)cn1` (stereo partly drawn) [Example 346, (3R)-3-(4-chlorophenyl)-2-[(5-chloropyridin-2-yl)methyl]-4-fluoro-6-[1-hydroxy-1-(1-methyl-1H-pyrazol-4-yl)ethyl]-3-{[1-(hydroxymethyl)cyclopropyl]methoxy}-2,3-dihydro-1H-isoindol-1-one]?
**A.** IC50 (SN40R2 cells): 12 µM; IC50 (SJSA-1 cells; [1]): 0.012 µM

**Q.** How did the inhibition at 10 µM (SN40R2 cells; [3]) turn out when `CC(O)(c1cc(F)c2c(c1)C(=O)N(Cc1ncc(Cl)cn1)[C@@]2(OCC1(CO)CC1)c1ccc(Cl)cc1)[C@H]1CC[C@H](O)CC1` (stereo partly drawn) [Example 401, (3R)-3-(4-chlorophenyl)-2-[(5-chloropyrimidin-2-yl)methyl]-4-fluoro-6-{1-hydroxy-1-[trans-4-hydroxycyclohexyl]ethyl}-3-{[1-(hydroxymethyl)cyclopropyl]methoxy}-2,3-dihydro-1H-isoindol-1-one] was run?
**A.** 6%

**Q.** And the IC50 (SJSA-1 cells; [5])?
**A.** 0.0098 µM

**Q.** How did the inhibition at 10 µM (SN40R2 cells; [3]) turn out when `CCC(O)(c1cc(F)c2c(c1)C(=O)N(Cc1ccc(C#N)cn1)[C@@]2(OCC1(F)COC1)c1ccc(Cl)cc1)c1cn(C)cn1` (stereo partly drawn) [Example 435, 6-{[(1R)-1-(4-chlorophenyl)-7-fluoro-1-[(3-fluorooxetan-3-yl)methoxy]-5-[1-hydroxy-1-(1-methyl-1H-imidazol-4-yl)propyl]-3-oxo-2,3-dihydro-1H-isoindol-2-yl]methyl}pyridine-3-carbonitrile] was run?
**A.** 0%

**Q.** What about the IC50 (SJSA-1 cells; [4]) of the same compound?
**A.** 0.015 µM

**Q.** How did the inhibition at 10 µM (SN40R2 cells; [3]) turn out when `[2H]C([2H])(O)C1(C([2H])([2H])O[C@]2(c3ccc(Cl)cc3)c3c(F)cc(C(O)(CC)c4cn(C)cn4)cc3C(=O)N2Cc2ccc(C#N)cn2)CC1` (stereo partly drawn) [Example 439, 6-{[(1R)-1-(4-chlorophenyl)-7-fluoro-1-({1-[hydroxy(^2H2)methyl]cyclopropyl}(^2H2)methoxy)-5-[1-hydroxy-1-(1-methyl-1H-imidazol-4-yl)propyl]-3-oxo-2,3-dihydro-1H-isoindol-2-yl]methyl}pyridine-3-carbonitrile] was run?
**A.** 3%

**Q.** And the IC50 (SJSA-1 cells; [5])?
**A.** 0.03 µM

**Q.** What does the source list for `[2H]C([2H])(O)C1(C([2H])([2H])O[C@]2(c3ccc(Cl)cc3)c3c(F)cc(C(C)(C)C4(F)CCOCC4)cc3C(=O)N2Cc2ncc(Cl)cn2)CC1` [Example 447, (3R)-3-(4-Chlorophenyl)-2-[(5-chloropyrimidin-2-yl)methyl]-4-fluoro-6-[1-(4-fluorooxan-4-yl)-1-hydroxyethyl]-3-({1-[hydroxy(^2H2)methyl]cyclopropyl}(^2H2)methoxy)-2,3-dihydro-1H-isoindol-1-one]?
**A.** inhibition at 10 µM (SN40R2 cells; [3]): 10%; IC50 (SJSA-1 cells; [4]): 0.011 µM

**Q.** How did the inhibition at 10 µM (SN40R2 cells; [3]) turn out when `CCC(O)(c1cc(F)c2c(c1)C(=O)N(Cc1ncc(Cl)cn1)[C@@]2(O[C@H]1C[C@@H](O)C1)c1ccc(Cl)cc1)c1cn(C)cn1` (stereo partly drawn) [Example 464, (3R)-3-(4-chlorophenyl)-2-[(5-chloropyrimidin-2-yl)methyl]-4-fluoro-6-[1-hydroxy-1-(1-methyl-1H-imidazol-4-yl)propyl]-3-[cis-3-hydroxycyclobutoxy]-2,3-dihydro-1H-isoindol-1-one] was run?
**A.** 46%

**Q.** And the IC50 (SJSA-1 cells; [4])?
**A.** 0.18 µM

**Q.** Which results are given for `Cn1cnc(C(C)(O)c2cc(F)c3c(c2)C(=O)N(Cc2ncc(C#N)cn2)[C@@]3(OCC2(F)COC2)c2ccc(Cl)cc2)c1` (stereo partly drawn) [Example 468, 2-{[(1R)-1-(4-chlorophenyl)-7-fluoro-1-[(3-fluorooxetan-3-yl)methoxy]-5-[1-hydroxy-1-(1-methyl-1H-imidazol-4-yl)ethyl]-3-oxo-2,3-dihydro-1H-isoindol-2-yl]methyl}pyrimidine-5-carbonitrile]?
**A.** inhibition at 10 µM (SN40R2 cells; [3]): 2%; IC50 (SJSA-1 cells; [4]): 0.48 µM

**Q.** Which inhibition at 10 µM (SN40R2 cells; [3]) does the source give for `CCC(O)(c1cc(F)c2c(c1)C(=O)N(Cc1ncc(C#N)cn1)[C@@]2(OCC1(F)COC1)c1ccc(Cl)cc1)c1cn(C)cn1` (stereo partly drawn) [Example 470, 2-{[(1R)-1-(4-chlorophenyl)-7-fluoro-1-[(3-fluorooxetan-3-yl)methoxy]-5-[1-hydroxy-1-(1-methyl-1H-imidazol-4-yl)propyl]-3-oxo-2,3-dihydro-1H-isoindol-2-yl]methyl}pyrimidine-5-carbonitrile] here?
**A.** 3%

**Q.** And the IC50 (SJSA-1 cells; [5])?
**A.** 0.1 µM

**Q.** With `CCC(O)(c1cc(F)c2c(c1)C(=O)N(Cc1ncc(C#N)cn1)[C@@]2(O[C@H]1CCOC1)c1ccc(Cl)cc1)c1ccn(C)n1` (stereo partly drawn) [Example 490, 2-{[(1R)-1-(4-chlorophenyl)-7-fluoro-5-[1-hydroxy-1-(1-methyl-1H-pyrazol-3-yl)propyl]-3-oxo-1-[(3S)-oxolan-3-yloxy]-2,3-dihydro-1H-isoindol-2-yl]methyl}pyrimidine-5-carbonitrile] as the compound, how does the inhibition at 10 µM (SN40R2 cells; [3]) read?
**A.** 0%

**Q.** And the IC50 (SJSA-1 cells; [5])?
**A.** 0.27 µM

**Q.** `CC[C@@](O)(c1cc(F)c2c(c1)C(=O)N(Cc1ncc(Cl)cn1)[C@@]2(OCCO)c1ccc(Cl)cc1)C1(F)CCOCC1` [Example 501, (3R)-3-(4-chlorophenyl)-2-[(5-chloropyrimidin-2-yl)methyl]-4-fluoro-6-[(1R)-1-(4-fluorooxan-4-yl)-1-hydroxypropyl]-3-(2-hydroxyethoxy)-2,3-dihydro-1H-isoindol-1-one] was tested. Which inhibition at 3 µM (SN40R2 cells; read-out: SN40R2 % inhibition at 3) did it give?
**A.** 8%

**Q.** What about the IC50 (SJSA-1 cells; [4]) of the same compound?
**A.** 0.022 µM

**Q.** With `CC[C@@](O)(c1cc(F)c2c(c1)C(=O)N(Cc1ncc(C#N)cn1)[C@@]2(OCCO)c1ccc(Cl)cc1)C1(F)CCOCC1` [Example 509, 2-{[(1R)-1-(4-chlorophenyl)-7-fluoro-5-[(1R)-1-(4-fluorooxan-4-yl)-1-hydroxypropyl]-1-(2-hydroxyethoxy)-3-oxo-2,3-dihydro-1H-isoindol-2-yl]methyl}pyrimidine-5-carbonitrile] as the compound, how does the inhibition at 10 µM (SN40R2 cells; [3]) read?
**A.** 6%

**Q.** What about the IC50 (SJSA-1 cells; [4]) of the same compound?
**A.** 0.042 µM

**Q.** How did the inhibition at 10 µM (SN40R2 cells; [3]) turn out when `CC[C@@](O)(c1cc(F)c2c(c1)C(=O)N(Cc1ncc(Cl)cn1)[C@@]2(OC[C@@H](C)O)c1ccc(Cl)cc1)C1CCN(C)CC1` [Example 562, (3R)-3-(4-chlorophenyl)-2-[(5-chloropyrimidin-2-yl)methyl]-4-fluoro-6-[(1S)-1-hydroxy-1-(1-methylpiperidin-4-yl)propyl]-3-[(2R)-2-hydroxypropoxy]-2,3-dihydro-1H-isoindol-1-one] was run?
**A.** 1%

**Q.** Which inhibition at 10 µM (SN40R2 cells; [3]) does the source give for `CC[C@](O)(c1cc(F)c2c(c1)C(=O)N(Cc1ncc(Cl)cn1)[C@@]2(OC)c1ccc(Cl)cc1)C1CCN(C)CC1` [Example 566, (3R)-3-(4-chlorophenyl)-2-[(5-chloropyrimidin-2-yl)methyl]-4-fluoro-6-[(1R)-1-hydroxy-1-(1-methylpiperidin-4-yl)propyl]-3-methoxy-2,3-dihydro-1H-isoindol-1-one] here?
**A.** 46%

**Q.** With `CC(O)(c1cc(F)c2c(c1)C(=O)N(Cc1ccc(C#N)cn1)[C@@]2(OC[C@H](O)CF)c1ccc(Cl)cc1)C1(F)CCOCC1` (stereo partly drawn) [Example 579, 6-{[(1R)-1-(4-chlorophenyl)-7-fluoro-1-[(2S)-3-fluoro-2-hydroxypropoxy]-5-[1-(4-fluorooxan-4-yl)-1-hydroxyethyl]-3-oxo-2,3-dihydro-1H-isoindol-2-yl]methyl}pyridine-3-carbonitrile] as the compound, how does the inhibition at 10 µM (SN40R2 cells; [3]) read?
**A.** 4%

**Q.** With `[2H]C([2H])(O)C([2H])([2H])O[C@]1(c2ccc(Cl)cc2)c2c(F)cc(C(O)(CC)C3(F)CCN(C)CC3)cc2C(=O)N1Cc1ncc(Cl)cn1` (stereo partly drawn) [Example 580, (3R)-3-(4-chlorophenyl)-2-[(5-chloropyrimidin-2-yl)methyl]-4-fluoro-6-[1-(4-fluoro-1-methylpiperidin-4-yl)-1-hydroxypropyl]-3-[2-hydroxy(1,1,2,2-tetradeutero)ethoxy]-2,3-dihydro-1H-isoindol-1-one] as the compound, how does the inhibition at 10 µM (SN40R2 cells; read-out: SN40R2 % inhibition at 10, Protocol B, SN40R2, at 10 μM) read?
**A.** 13%
